Experiment [1] concerns human lung cancer-derived cell line NCI-H460 having wild-type p53. Put plainly: Cell growth inhibition assay (MTT), NCI-H460. The note with it: 72 hours. The experiment is classed as cell-based. The method, then: (§1) An anti-cell test was conducted using two cells (human lung cancer-derived cell line NCI-H460 having wild-type p53 and human colon cancer-derived cell line DLD-1 having mutant p53).
(§2) Cells of the respective cell lines were suspended in a medium (RPMI1640 medium containing 10% fetal bovine serum) and these suspensions were inoculated in amounts of 500 cells/150 μL/well and 1000 cells/150 μL/well, respectively, to a 96-well multiwell plate. A test compound was dissolved in DMSO and this solution was diluted with medium to prepare a sample solution (DMSO concentration: 1% or lower). On the next day of inoculation, medium containing DMSO nonsupplemented with the test compound (hereinafter, referred to as a DMSO dilution, DMSO concentration: 1% or lower) or the sample solution was added in an amount of 50 μL/well. MTT assay was conducted immediately after addition of the sample solution or the DMSO dilution to the cells and after culture of the cells (after addition of the sample solution or the DMSO dilution) at 37° C. for 72 hours in a 5% CO2 atmosphere. The MTT assay was conducted as shown below.
(§3) A 5 mg/mL MTT (3-(4,5-dimethylthiazol-2-yl)-2,5-diphenyltetrazolium bromide, Sigma-Aldrich Co., M-2128) solution was prepared using phosphate buffer solutions (Dulbecco's Phosphate-buffered Salines). This MTT solution was added in an amount of 20 μL/well. Then, the plate was cultured at 37° C. for 4 hours in a 5% CO2 atmosphere. The plate was centrifuged at 1200 rpm for 5 minutes and then the culture supernatant was removed by aspiration using a dispenser. DMSO was added in an amount of 150 μL/well to dissolve generated formazan. […] The absorbance of each well was measured under conditions of OD 540 nm and reference 660 nm using a plate reader (SpectraMax PLUS384, Molecular Devices, CA, USA).
(§4) The OD value measured immediately after addition of the sample solution was defined as S. The OD value measured 72 hours after addition of the sample solution was defined as T. The OD value measured 72 hours after addition of the DMSO dilution was defined as C. […]

The subject of experiment [2] is human colon cancer-derived cell line DLD-1 having mutant p53. As to the kind of experiment: Cell growth inhibition assay (MTT), DLD-1. Conditions: DLD-1 (mutant p53), 72 hours. The experiment is classed as cell-based. The method, then: as §1, §2, §3, §4
Experiment [3] deals with T1, Mdm2/p53 binding (Homo sapiens, UniProt Q00987, L33E).
T1 construct: having Mdm2 amino acids at positions 25 to 108
As to the kind of experiment: Mdm2/p53 binding assay (HTRF, His-p53 / GST-Mdm2). Conditions: His-p53 (aa 1-132) and GST-Mdm2 (aa 25-108, L33E), 6.25 nM each; 25° C., 1 hour. The method, then: Next, a test compound was diluted with protein buffer solution containing 10% DMSO, and this test compound dilution was added in an amount of 4 μL/well to the plate.
These dilutions were added in an amount of 8 μL/well (total reaction solution volume: 20 μl/well). Then, the plate was left at 25° C. for 1 hour.
C (correction factor)=(A−BI)/D
The R value calculated from the well supplemented with His-p53, GST-Mdm2, the test compound, and each antibody was defined as R (sample). The R value calculated from the well supplemented with His-p53, GST-Mdm2, and each antibody but without the test compound was defined as R (control). The R value calculated from the well supplemented with GST-Mdm2, the test compound, and each antibody but without His-p53 was defined as R (background). T/C was calculated from the formula shown below. An IC50 value for Mdm2/p53 binding was calculated by sigmoid fitting using Prism (GraphPad Software).
T/C=(R (sample)−R (background))/(R (control)−R (background))
Background: Time-resolved FRET reads energy transfer from a long-lived donor to a nearby acceptor.

T1 sequence (Q00987 25-108 L33E, species assumed): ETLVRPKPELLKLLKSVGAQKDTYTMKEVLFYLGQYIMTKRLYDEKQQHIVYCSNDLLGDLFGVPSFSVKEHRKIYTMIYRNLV

As to `CC(C)C1=C(C(=O)N2CCC[C@H]2C(=O)N2CCOCC2)SC2=N[C@@](C)(c3ccc(Cl)nc3)[C@@H](c3ccc(Cl)cc3)N21` (single isomer, unassigned; isomer b) [Example 97 (Isomer B)], the results for the GI50 in experiment [1] and in experiment [2] were 2810 nM and more than 50000 nM, respectively. The compound also displayed an IC50 in experiment [3] of 10 nM.
Regarding `CC(=O)N(C)[C@@H](C)CN(C)C(=O)[C@@H]1CCCN1C(=O)C1=C(C(C)C)N2C(=N[C@@](C)(c3ccc(Cl)cc3)[C@H]2c2ccc(Cl)cc2)S1` [Example 73, N-{(2S)-2-[Acetyl(methyl)amino]propyl}-1-{[(5R,6S)-5,6-bis(4-chlorophenyl)-3-isopropyl-6-methyl-5,6-dihydroimidazo[2,1-b][1,3]thiazol-2-yl]carbonyl}-N-methyl-L-prolinamide], the GI50 is 1750 nM in experiment [1] (Homo sapiens) and more than 50000 nM in experiment [2] (Homo sapiens). For the same compound, in experiment [3], the IC50 was determined as 18 nM.
As for `CC(C)C1=C(C(=O)N2[C@@H](C)CC[C@H]2C(=O)N(C)C)SC2=N[C@@](C)(c3ccc(Cl)cc3)[C@@H](c3ccc(Cl)cc3)N21` [Example 112, (5S)-1-{[(5R,6S)-5,6-Bis(4-chlorophenyl)-3-isopropyl-6-methyl-5,6-dihydroimidazo[2,1-b][1,3]thiazol-2-yl]carbonyl}-N,N,5-trimethyl-L-prolinamide], the GI50 in experiment [1] (Homo sapiens) worked out at 1380 nM; in experiment [2] (Homo sapiens), 40700 nM.
In turn, `CC[C@@H]1CC[C@@H](C(=O)N2CCN(C(C)=O)[C@H](C)C2)N1C(=O)C1=C(C(C)C)N2C(=N[C@@](C)(c3ccc(Cl)cc3)[C@H]2c2ccc(Br)cc2)S1` [Example 155, (5R,6S)-2-{[(2S,5R)-2-{[(3R)-4-Acetyl-3-methylpiperazin-1-yl]carbonyl}-5-ethylpyrrolidin-1-yl]carbonyl}-5-(4-bromophenyl)-6-(4-chlorophenyl)-3-isopropyl-6-methyl-5,6-dihydroimidazo[2,1-b][1,3]thiazole] showed an IC50 in experiment [3] of 30 nM.
Regarding `CC(C)C1=C(C(=O)N(C)[C@H]2C[C@@H](O)C2)SC2=N[C@@](C)(c3ccc(Cl)cc3)[C@@H](c3ccc(Cl)cc3)N21` [Example 164, (5R,6S)-5,6-Bis(4-chlorophenyl)-N-(cis-3-hydroxycyclobutyl)-3-isopropyl-N,6-dimethyl-5,6-dihydroimidazo[2,1-b][1,3]thiazole-2-carboxamide], in experiment [3], the IC50 worked out at 84 nM.
As for `CC(C)C1=C(C(=O)N2[C@H](C)CC[C@H]2C(=O)N2CCN(C)[C@H](C)C2)SC2=N[C@@](C)(c3ccc(Cl)cc3)[C@@H](c3ccc(Cl)c(F)c3)N21` [Example 167, (5R,6S)-5-(4-Chloro-3-fluorophenyl)-6-(4-chlorophenyl)-2-{[(2S,5R)-2-{[(3R)-3,4-dimethylpiperazin-1-yl]carbonyl}-5-methylpyrrolidin-1-yl]carbonyl}-3-isopropyl-6-methyl-5,6-dihydroimidazo[2,1-b][1,3]thiazole], the IC50 in experiment [3] turned out to be 10 nM.
As to `CC(C)C1=C(C(=O)N2[C@H](C)CC[C@H]2C(=O)N2CCN(C)[C@H](C)C2)SC2=N[C@@](C)(c3ccc(Cl)cc3)[C@@H](c3ccc(C(F)(F)F)cc3)N21` [Example 180, (5R,6S)-6-(4-Chlorophenyl)-2-{[(2S,5R)-2-{[(3R)-3,4-dimethylpiperazin-1-yl]carbonyl}-5-methylpyrrolidin-1-yl]carbonyl}-3-isopropyl-6-methyl-5-[4-(trifluoromethyl)phenyl]-5,6-dihydroimidazo[2,1-b][1,3]thiazole], in experiment [3], the IC50 is 13 nM.
`CC(C)C1=C(C(=O)N2[C@H](C)CC[C@H]2C(=O)N2CCN(CCO)[C@H](C)C2)SC2=N[C@@](C)(c3ccc(Cl)cc3)[C@@H](c3ccc(Cl)cc3)N21` [Example 204, 2-{(2R)-4-[(5R)-1-{[(5R,6S)-5,6-Bis(4-chlorophehyl)-3-isopropyl-6-methyl-5,6-dihydroimidazo[2,1-b][1,3]thiazol-2-yl]carbonyl}-5-methyl-L-prolyl]-2-methylpiperazin-1-yl}ethanol] had an IC50 in experiment [3] of 19 nM.
Same read-out and setting: then `CC(C)C1=C(C(=O)N2CCC[C@H]2COC2CCN(C)CC2)SC2=N[C@@](C)(c3ccc(Cl)cc3)[C@@H](c3ccc(Cl)cc3)N21` [Example 211, (5R,6S)-5,6-Bis(4-chlorophenyl)-3-isopropyl-6-methyl-2-{[(2S)-2-{[(1-methylpiperidin-4-yl)oxy]methyl}pyrrolidin-1-yl]carbonyl}-5,6-dihydroimidazo[2,1-b][1,3]thiazole], with 12 nM; and `CC(C)C1=C(C(=O)N(C(C)C)[C@H]2C[C@H](N(C)C)C2)SC2=N[C@@](C)(c3ccc(Cl)cc3)[C@@H](c3ccc(Cl)cc3)N21` [Example 219, (5R,6S)-5,6-Bis(4-chlorophenyl)-N-[trans-3-(dimethylamino)cyclobutyl]-N,3-diisopropyl-6-methyl-5,6-dihydroimidazo[2,1-b][1,3]thiazole-2-carboxamide], with 4 nM; and `CC(C)C1=C(C(=O)N(C)C)SC2=N[C@@](C)(c3ccc(Cl)nc3)[C@@H](c3ccc(Cl)cc3)N21` [Example 220, (5R,6S)-5-(4-Chlorophenyl)-6-(6-chloropyridin-3-yl)-3-isopropyl-N,N,6-trimethyl-5,6-dihydroimidazo[2,1-b][1,3]thiazole-2-carboxamide], with 76 nM.
In the case of `CC(C)C1=C(C(=O)N2[C@H](C)CC[C@H]2C(=O)N2C[C@@H](N)[C@H](F)C2)SC2=N[C@@](C)(c3ccc(Cl)cc3)[C@@H](c3ccc(Cl)cc3)N21` [Example 240, (3R,4R)-1-[(5R)-1-{[(5R,6S)-5,6-Bis(4-chlorophenyl)-3-isopropyl-6-methyl-5,6-dihydroimidazo[2,1-b][1,3]thiazol-2-yl]carbonyl}-5-methyl-L-prolyl]-4-fluoropyrrolidin-3-amine], the IC50 in experiment [3] is 13 nM.
For the compound `CC(C)C1=C(C(=O)N2[C@H](C)CC[C@H]2C(=O)N2CCN(CCO)[C@H](C)C2)SC2=N[C@@](C)(c3ccc(Cl)nc3)[C@@H](c3ccc(Cl)c(F)c3)N21` [Example 260, 2-{(2R)-4-[(5R)-1-{[(5R,6S)-5-(4-chloro-3-fluorophenyl)-6-(6-chloropyridin-3-yl)-3-isopropyl-6-methyl-5,6-dihydroimidazo[2,1-b][1,3]thiazol-2-yl]carbonyl}-5-methyl-L-prolyl]-2-methylpiperazin-1-yl}ethanol], the IC50 in experiment [3] came out at 15 nM.

The term GI50 denotes the concentration giving 50% growth inhibition. Read a low GI50 as more potent growth inhibition. For orientation: IC50 means the concentration needed to halve the response being measured.

(Values after patent US20090312310A1 (priority 2006, published 2009).)
